Measured values taken from patent US9322066B2, “Predictors for cancer treatment” (priority 2011, dated 2016).

Tested on: relapsed or refractory, rituximab-naive or -sensitive follicular B-cell NHL
Test: Duration of response, Vc-R vs rituximab study, by biomarker
Format: in vivo, human
Description: Non-Hodgkin lymphoma (NHL) encompasses several unique malignant lymphoid disease entities that vary in clinical behavior, morphologic appearance, immunologic, and molecular phenotype. […] A randomized, open-label, active-controlled, multicenter, multinational, prospective study to compare the efficacy and safety of the combination of bortezomib and rituximab (Vc-R) to single-agent rituximab in subjects who have relapsed or refractory, rituximab-naive or -sensitive follicular B-cell NHL was performed.
Subjects were centrally randomized to Treatment Groups A (Vc-R) or B (rituximab) in a 1:1 ratio taking into account the following stratification factors: • Follicular Lymphoma International Prognostic Index (FLIPI) score (low [0 or 1 factor], intermediate [2 factors], high [≧3 factors]); • Prior rituximab therapy (yes, no); • Time since last dose of anti-lymphoma therapy (≦1 year, >1 year); • Region (United States/Canada, European Union, Rest of World).
The following clinical endpoints were included in the analysis within each treatment group and an overall comparison was made with the biomarker-related endpoints: Progression-free survival, defined as the interval between the date of randomization and the date of progressive disease (PD) or death, whichever is first reported in the ITT population; overall survival; overall response rate (complete response [CR]+CR unconfirmed [CRu]+partial response [PR]); overall CR rate (CR+CRu); duration of response; time to next anti-lymphoma therapy; and treatment free interval.
Comparison of the response rates between the treatment groups was conducted using the Fishers Exact Test. Duration of response, time to response, and time to clinical relapse were analyzed descriptively, where appropriate, and the biomarker subset was compared (if appropriate, determined as per the initial analysis) to the overall clinical cohort, by treatment group and overall. An exploratory estimate of the response rates in each treatment group was presented with 2-sided 95% confidence intervals. The number and percentage of subjects falling into each response category was descriptively tabulated.

[1] = 20S % NUCLEAR STAINING: 30-50, Prior Rituximab Therapy
[2] = 20S INTENSITY CYTOPLASMIC SIGNAL: ≦2+, Intermediate FLIPI Score
[3] = 20S INTENSITY CYTOPLASMIC SIGNAL: ≧3+, Intermediate FLIPI Score
[4] = 20S INTENSITY CYTOPLASMIC SIGNAL: ≧3+, No Prior Rituximab Therapy
[5] = 20S INTENSITY CYTOPLASMIC SIGNAL: ≧3+, ≦65 years old
[6] = BCL2/ A43G: MND, Ann Arbor Stage IV
[7] = BCL2/ E29K: MND, Ann Arbor Stage IV
[8] = BCL2/ P46L: MD, >1 year since last anti- lymphoma treatment
[9] = BCL2/ P59L: MD, 1 Prior Line of Therapy
[10] = BCL2/ P59L: MD, >1 year since last anti- lymphoma treatment
[11] = BCL2/ P59L: MD, Prior Rituximab Therapy
[12] = BCL2/ R106H: MND, Ann Arbor Stage IV
[13] = CD68 OVERALL POSITIVE: 0-25, High FLIPI Score
[14] = CD68 OVERALL POSITIVE: 0-25, ≦1 year since last anti-lymphoma treatment
[15] = CD68 OVERALL POSITIVE: 51-75, Male
[16] = CD68 OVERALL POSITIVE: >75, Male
[17] = CD68 POSITIVE FOLLICULAR: 0-25, Female
[18] = CD68 POSITIVE PERIFOLLICULAR: >75, Male
[19] = NOTCH/ P2513L: MND, >65 years old
[20] = NOTCH/ X28INS: MND, Ann Arbor Stage IV
[21] = NOTCH/ X28INS: MND, ≦65 years old
[22] = P27 % NUCLEI POSITIVE: 60-70, High FLIPI Score
[23] = P27 % NUCLEI POSITIVE: 60-70, Male
[24] = P65 INTENSITY CYTOPLASMIC SIGNAL: ≦1+, Ann Arbor Stage III

Substance: rituximab
- Duration of response Evt/N [1]: 9/13
- Duration of response Median [1]: 356
- Duration of response Evt/N [2]: 9/25
- Duration of response Median [2]: 554
- Duration of response Evt/N [3]: 17/25
- Duration of response Median [3]: 352
- Duration of response Evt/N [4]: 22/32
- Duration of response Median [4]: 427
- Duration of response Evt/N [5]: 28/39
- Duration of response Median [5]: 417
- Duration of response Evt/N [6]: 23/28
- Duration of response Median [6]: 353
- Duration of response Evt/N [7]: 21/26
- Duration of response Median [7]: 344
- Duration of response Evt/N (BCL2/ E29K: MND, ≦65 years old): 32/49
- Duration of response Median (BCL2/ E29K: MND, ≦65 years old): 353
- Duration of response Evt/N [8]: 5/5
- Duration of response Median [8]: 356
- Duration of response Evt/N [9]: 2/2
- Duration of response Median [9]: 345
- Duration of response Evt/N [10]: 3/4
- Duration of response Median [10]: 330
- Duration of response Evt/N (BCL2/ P59L: MD, No Subgroup): 4/5
- Duration of response Median (BCL2/ P59L: MD, No Subgroup): 343
- Duration of response Evt/N [11]: 3/3
- Duration of response Median [11]: 330
- Duration of response Evt/N (BCL2/ P59L: MD, White): 4/5
- Duration of response Median (BCL2/ P59L: MD, White): 343
- Duration of response Evt/N [12]: 21/26
- Duration of response Median [12]: 352
- Duration of response Evt/N [13]: 7/11
- Duration of response Median [13]: 423
- Duration of response Evt/N [14]: 5/7
- Duration of response Median [14]: 354
- Duration of response Evt/N [15]: 5/7
- Duration of response Median [15]: 279
- Duration of response Evt/N [16]: 3/3
- Duration of response Median [16]: 284
- Duration of response Evt/N [17]: 12/20
- Duration of response Median [17]: 354
- Duration of response Evt/N [18]: 3/3
- Duration of response Median [18]: 284
- Duration of response Evt/N [19]: 10/23
- Duration of response Median [19]: 948
- Duration of response Evt/N [20]: 26/31
- Duration of response Median [20]: 353
- Duration of response Evt/N [21]: 44/64
- Duration of response Median [21]: 369
- Duration of response Evt/N [22]: 7/9
- Duration of response Median [22]: 337
- Duration of response Evt/N [23]: 5/6
- Duration of response Median [23]: 281
- Duration of response Evt/N [24]: 2/4
- Duration of response Median [24]: 173
- Duration of response Evt/N (PSMB5/R24C: C/C, Ann Arbor Stage II): 4/18
- Duration of response Evt/N (PSMB9/R60H: A/G, Male): 10/11
- Duration of response Median (PSMB9/R60H: A/G, Male): 211
